Data from US20140271765A1 (priority 2013, published 2014).
Values joined by “and” are separate entries in the source; they are usually repeats but may differ in a detail not shown here. Identical values can stand only once. Like-named read-outs stand apart in the source and are kept apart here.

How the values were obtained:
[1] = in vivo
[2] = buprenorphine
[3] = human, in vivo
[4] = dog, in vivo
[5] = 2 implants, individual subjects

CO[C@@]12CC[C@@]3(C[C@@H]1[C@](C)(O)C(C)(C)C)[C@H]1Cc4ccc(O)c5c4[C@@]3(CCN1CC1CC1)[C@H]2O5 [buprenorphine]
shortest half-life during the plateau phase ([1]; human): 25 weeks | Cave from Day 21 to removal, higher in the higher dose group as compared with the lower dose group [1]: 93% | Cmax, higher in the higher dose group as compared with the lower dose group [1]: 62% | reduction in buprenorphine concentrations from Day 17 to removal [1]: ≤ 50% | time to reach plateau phase [1]: ≤ 21 days | Model predicted concentration at removal ([2]; 2 implants, Mean): 330.7 pg/mL | Time from implant to reaching 2x last concentration ([2]; 2 implants, Mean): 242.0 h | α-Half Life ([2]; 2 implants, Mean): 12.75 h | β-Half Life ([2]; 2 implants, Mean): 133.1 h | γ-Half life ([2]; 2 implants, Mean): 160.7 weeks | Model predicted concentration at removal ([2]; 2 implants, Median): 340.0 pg/mL | Time from implant to reaching 2x last concentration ([2]; 2 implants, Median): 231.0 h | α-Half Life ([2]; 2 implants, Median): 7.55 h | β-Half Life ([2]; 2 implants, Median): 124.0 h | γ-Half life ([2]; 2 implants, Median): 77.9 weeks | Model predicted concentration at removal [2, 5]: 263 pg/mL and 342 pg/mL (2×) and 252 pg/mL and 447 pg/mL and 338 pg/mL | Time from implant to reaching 2x last concentration [2, 5]: 396 h and 259 h and 313 h and 180 h and 101 h and 203 h | α-Half Life [2, 5]: 7.55 h and 4.17 h and 115 h and 39.7 h and 2.94 h and 9.41 h | β-Half Life [2, 5]: 124 h and 206 h and 3578 h and 174 h and 52.3 h and 109 h | γ-Half life [2, 5]: 29.9 weeks and 457 weeks and 35.7 weeks and 120 weeks | Model predicted concentration at removal ([2]; 4 implants, Mean): 6.11 pg/mL | Time from implant to reaching 2x last concentration ([2]; 4 implants, Mean): 715.7 h | α-Half Life ([2]; 4 implants, Mean): 3230 h | β-Half Life ([2]; 4 implants, Mean): 15.95 h | Model predicted concentration at removal ([2]; 4 implants, Median): 5.76 pg/mL | Time from implant to reaching 2x last concentration ([2]; 4 implants, Median): 706.5 h | α-Half Life ([2]; 4 implants, Median): 3020 h | β-Half Life ([2]; 4 implants, Median): 15.75 h | duration of plateau of therapeutically-effective plasma level [3]: at least 24 weeks | time until plasma concentration reaches a plateau [3]: about a few days to about two weeks | changes in plasma buprenorphine exposure with external heat [4]: No consistent changes | mean steady state concentration (Css1) [4]: 3.90 ng/mL | mean steady-state concentration (Css3) [4]: 3.86 ng/mL | mean steady-state plasma buprenorphine concentration (Css2) [4]: 4.37 ng/mL | steady state concentration (Css1), range [4]: 3.01 to 4.77 ng/mL | steady-state concentration (Css3), range [4]: 2.73 to 4.84 ng/mL | steady-state plasma buprenorphine concentration (Css2), range [4]: 2.61 to 5.42 ng/mL
